Starred links: 1 amine or outer side, 2 acyl side, 3 side chain; linkers in the order of their positions; H or OH if unused. Positions of bridges follow the written chain, without caps; N, C: chain ends. Non-standard residues stand in square brackets, D forms with d. Residues, ends and D or L forms follow the SMILES beside them. *: point of attachment. C20 diacid = O=C(O)CCCCCCCCCCCCCCCCCCC(=O)*; γGlu = O=C(O)[C@H](CCC(=O)[*:2])N[*:1]; AEEA = NCCOCCOCC(=O)O
Assay: Assay (III) ThT fibrillation assay for physical stability
Type: physicochemical
Conditions: pH 4.0
From the text: Assay (III)—ThT Fibrillation Assays for the Assessment of Physical Stability of Protein formulations Low physical stability of a polypeptide may lead to amyloid fibril formation, which is observed as well-ordered, thread-like macromolecular structures in the sample eventually resulting in gel formation. This has traditionally been measured by visual inspection of the sample. However, that kind of measurement is very subjective and depending on the observer. Therefore, the application of a small molecule indicator probe is much more advantageous. Thioflavin T (ThT) is such a probe and has a distinct fluorescence signature when binding to fibrils [Naiki et al. (1989) Anal. Biochem. 177, 244-249; LeVine (1999) Methods. Enzymol. […], 274-284]. The time course for fibril formation can be described by a sigmoidal curve with the following expression [Nielsen et al. (2001) Biochemistry 40, 6036-6046]: [formula] Here, F is the ThT fluorescence at the time t. The constant t0 is the time needed to reach 50% of maximum fluorescence. […] Few of those intermediates nucleate to form a template onto which further intermediates may assembly and the fibrillation proceeds. The lag-time corresponds to the interval in which the critical mass of nucleus is built up and the apparent rate constant is the rate with which the fibril itself is formed. Sample Preparation Samples were prepared freshly before each assay. Each sample composition is described in each example. The pH of the sample was adjusted to the desired value using appropriate amounts of concentrated NaOH and HClO4 or HCl. Thioflavin T was added to the samples from a stock solution in H2O to a final concentration of 1 μM. Sample aliquots of 200 μl were placed in a 96 well microtiter plate (Packard OptiPlate™-96, white polystyrene). Usually, four or eight replica of each sample (corresponding to one test condition) were placed in one column of wells. The plate was sealed with Scotch Pad (Qiagen). Incubation and Fluorescence Measurement Incubation at given temperature, shaking and measurement of the ThT fluorescence emission were done in a Fluoroskan Ascent FL fluorescence platereader or Varioskan platereader (Thermo Labsystems). The temperature was adjusted to 37° C. The orbital shaking was adjusted to 960 rpm with an amplitude of 1 mm in all the presented data. Fluorescence measurement was done using excitation through a 444 nm filter and measurement of emission through a 485 nm filter. Each run was initiated by incubating the plate at the assay temperature for 10 min. The plate was measured every 20 minutes for a desired period of time. Between each measurement, the plate was shaken and heated as described. Data Handling The measurement points were saved in Microsoft Excel format for further processing and curve drawing and fitting was performed using GraphPad Prism. The background emission from ThT in the absence of fibrils was negligible. The data points are typically a mean of four or eight samples and shown with standard deviation error bars. Only data obtained in the same experiment (i.e. samples on the same plate) are presented in the same graph ensuring a relative measure of fibrillation between experiments. The data set may be fitted to Eq. (1). However, since full sigmodial curves in this case are not always achieved during the measurement time, the degree of fibrillation is expressed as ThT fluorescence tabulated as the mean of the samples and shown with the standard deviation at various time points. Measurement of Initial and Final Concentrations The polypeptide concentration in each of the tested formulations were measured both before application in the ThT fibrillation assay (“Initial”) and after completion of the ThT fibrillation (“After ThT assay”). Concentrations were determined by reverse HPLC methods using a pramlintide standard as a reference. Before measurement after completion 150 μl was collected from each of the replica and transferred to an Eppendorf tube. […]
For CC[C@H](C)[C@H](NC(=O)[C@@H]1CCCN1C(=O)CNC(=O)[C@H](Cc1ccccc1)NC(=O)[C@H](CC(N)=O)NC(=O)[C@H](CC(N)=O)NC(=O)[C@H](CO)NC(=O)[C@H](CO)NC(=O)[C@H](Cc1c[nH]cn1)NC(=O)[C@H](Cc1cnc[nH]1)NC(=O)[C@H](CC(C)C)NC(=O)[C@H](Cc1ccccc1)NC(=O)[C@H](CCC(=O)O)NC(=O)[C@H](C)NC(=O)[C@H](CC(C)C)NC(=O)[C@H](CCCNC(=N)N)NC(=O)[C@H](CCC(N)=O)NC(=O)[C@@H](NC(=O)[C@H](C)NC(=O)[C@@H]1CSSC[C@H](NC(=O)[C@H](CCCCN)NC(=O)CC[C@H](NC(=O)CCCCCCCCCCCCCCCCCCC(=O)O)C(=O)O)C(=O)N[C@@H](CC(N)=O)C(=O)N[C@@H]([C@@H](C)O)C(=O)N[C@@H](C)C(=O)N[C@@H]([C@@H](C)O)C(=O)N1)[C@@H](C)O)C(=O)N[C@@H](CC(C)C)C(=O)N1CCC[C@H]1C(=O)N1CCC[C@H]1C(=O)N[C@H](C(=O)N[C@@H](CC(N)=O)C(=O)N[C@H](C(=O)NCC(=O)N[C@@H](CO)C(=O)N[C@@H](CC(N)=O)C(=O)N[C@H](C(=O)N1CCC[C@H]1C(N)=O)[C@@H](C)O)C(C)C)[C@@H](C)O [Example 52, N-alpha-[(S)-4-Carboxy-4-(19-carboxynonadecanoylamino)butyryl]-[Glu14,His17,Pro37]-pramlintide] ({C20 diacid-γGlu}-KCNTATCATQRLAEFLHHSSNNFGPILPPTNVGSNTP-NH2; disulfide 2-7), the “ThT pH 4.0 lag time (physical stability in fibrillogenesis assay)” value was over 45 h. For CC[C@H](C)[C@H](NC(=O)[C@@H]1CCCN1C(=O)CNC(=O)[C@H](Cc1ccccc1)NC(=O)[C@H](CC(N)=O)NC(=O)[C@H](C)NC(=O)[C@H](CO)NC(=O)[C@H](CO)NC(=O)[C@H](CCCNC(=N)N)NC(=O)[C@H](Cc1cnc[nH]1)NC(=O)[C@H](CC(C)C)NC(=O)[C@H](Cc1ccccc1)NC(=O)[C@H](CCC(=O)O)NC(=O)[C@H](C)NC(=O)[C@H](CC(C)C)NC(=O)[C@H](CCCNC(=N)N)NC(=O)[C@H](CCC(N)=O)NC(=O)[C@@H](NC(=O)[C@H](C)NC(=O)[C@@H]1CSSC[C@H](NC(=O)[C@H](CCCCN)NC(=O)[C@@H](CCCNC(=N)N)NC(=O)[C@@H](CCCNC(=N)N)NC(=O)COCCOCCNC(=O)COCCOCCNC(=O)CC[C@H](NC(=O)CCCCCCCCCCCCCCCCCCC(=O)O)C(=O)O)C(=O)N[C@@H](CC(N)=O)C(=O)N[C@@H]([C@@H](C)O)C(=O)N[C@@H](C)C(=O)N[C@@H]([C@@H](C)O)C(=O)N1)[C@@H](C)O)C(=O)N[C@@H](CC(C)C)C(=O)N1CCC[C@H]1C(=O)N1CCC[C@H]1C(=O)N[C@H](C(=O)N[C@@H](CC(N)=O)C(=O)N[C@H](C(=O)NCC(=O)N[C@@H](CO)C(=O)N[C@@H](CO)C(=O)N[C@H](C(=O)N[C@@H](Cc1ccc(O)cc1)C(N)=O)[C@@H](C)O)C(C)C)[C@@H](C)O [Example 38, N-alpha-[2-(2-{2-[2-(2-{2-[(S)-4-Carboxy-4-(19-carboxyheptadecanoylamino)butyrylamino]ethoxy}ethoxy)acetylamino]ethoxy}ethoxy)acetyl]-D-Arg-D-Arg-[Glu14,His17,Arg18,Ala21,Ser35]-pramlintide] ({C20 diacid-γGlu-AEEA-AEEA}-[dR][dR]KCNTATCATQRLAEFLHRSSANFGPILPPTNVGSSTY-NH2; disulfide 4-9), the “ThT pH 4.0 lag time (physical stability in fibrillogenesis assay)” value was over 45 h. With CC[C@H](C)[C@H](NC(=O)[C@@H]1CCCN1C(=O)CNC(=O)[C@H](Cc1ccccc1)NC(=O)[C@H](CC(N)=O)NC(=O)[C@H](CC(N)=O)NC(=O)[C@H](CO)NC(=O)[C@H](CO)NC(=O)[C@H](Cc1c[nH]cn1)NC(=O)[C@H](CCCNC(=N)N)NC(=O)[C@H](CC(C)C)NC(=O)[C@H](Cc1ccccc1)NC(=O)[C@H](CCC(=O)O)NC(=O)[C@H](C)NC(=O)[C@H](CC(C)C)NC(=O)[C@H](CCCNC(=N)N)NC(=O)[C@H](CCC(N)=O)NC(=O)[C@@H](NC(=O)[C@H](C)NC(=O)[C@@H]1CSSC[C@H](NC(=O)[C@H](Cc2c[nH]cn2)NC(=O)CC[C@H](NC(=O)CCCCCCCCCCCCCCCCCCC(=O)O)C(=O)O)C(=O)N[C@@H](CC(N)=O)C(=O)N[C@@H]([C@@H](C)O)C(=O)N[C@@H](C)C(=O)N[C@@H]([C@@H](C)O)C(=O)N1)[C@@H](C)O)C(=O)N[C@@H](CC(C)C)C(=O)N1CCC[C@H]1C(=O)N1CCC[C@H]1C(=O)N[C@H](C(=O)N[C@@H](CC(N)=O)C(=O)N[C@H](C(=O)NCC(=O)N[C@@H](CO)C(=O)N[C@@H](CC(N)=O)C(=O)N[C@H](C(=O)N1CCC[C@H]1C(N)=O)[C@@H](C)O)C(C)C)[C@@H](C)O [Example 90, N-alpha-[(S)-4-Carboxy-4-(19-carboxynonadecanoylamino)butyryl]-[His1,Glu14,Arg17,Pro37]-pramlintide] ({C20 diacid-γGlu}-HCNTATCATQRLAEFLRHSSNNFGPILPPTNVGSNTP-NH2; disulfide 2-7) the “ThT pH 4.0 lag time (physical stability in fibrillogenesis assay)” value was over 45 h.

Same assay, conditions: pH 4.0, ThT fibrillation assay
In the case of CC[C@H](C)[C@H](NC(=O)[C@@H]1CCCN1C(=O)CNC(=O)[C@H](Cc1ccccc1)NC(=O)[C@H](CC(N)=O)NC(=O)[C@H](CC(N)=O)NC(=O)[C@H](CO)NC(=O)[C@H](CO)NC(=O)[C@H](Cc1c[nH]cn1)NC(=O)[C@H](Cc1c[nH]cn1)NC(=O)[C@H](CC(C)C)NC(=O)[C@H](Cc1ccccc1)NC(=O)[C@H](CCC(=O)O)NC(=O)[C@H](C)NC(=O)[C@H](CC(C)C)NC(=O)[C@H](CCCNC(=N)N)NC(=O)[C@H](CCC(N)=O)NC(=O)[C@@H](NC(=O)[C@H](C)NC(=O)[C@@H]1CSSC[C@H](NC(=O)[C@H](Cc2c[nH]cn2)NC(=O)[C@H](Cc2c[nH]cn2)NC(=O)[C@H](Cc2c[nH]cn2)NC(=O)CC[C@H](NC(=O)CCCCCCCCCCCCCCCCCCC(=O)O)C(=O)O)C(=O)N[C@@H](CC(N)=O)C(=O)N[C@@H]([C@@H](C)O)C(=O)N[C@@H](C)C(=O)N[C@@H]([C@@H](C)O)C(=O)N1)[C@@H](C)O)C(=O)N[C@@H](CC(C)C)C(=O)N1CCC[C@H]1C(=O)N1CCC[C@H]1C(=O)N[C@H](C(=O)N[C@@H](CC(N)=O)C(=O)N[C@H](C(=O)NCC(=O)N[C@@H](CO)C(=O)N[C@@H](Cc1c[nH]cn1)C(=O)N[C@H](C(=O)N[C@@H](Cc1ccc(O)cc1)C(N)=O)[C@@H](C)O)C(C)C)[C@@H](C)O [Example 31, N-alpha-[(S)-4-Carboxy-4-(19-carboxynonadecanoylamino)butyryl]-His-His-[His1,Glu14,His17,His35]-pramlintide] ({C20 diacid-γGlu}-HHHCNTATCATQRLAEFLHHSSNNFGPILPPTNVGSHTY-NH2; disulfide 4-9), the “ThT pH 4.0 lag time” value is reported as over 45 h. For CC[C@H](C)[C@H](NC(=O)[C@@H]1CCCN1C(=O)CNC(=O)[C@H](Cc1ccccc1)NC(=O)[C@H](CC(N)=O)NC(=O)[C@H](CC(N)=O)NC(=O)[C@H](CO)NC(=O)[C@H](CO)NC(=O)[C@H](Cc1c[nH]cn1)NC(=O)[C@H](CCCNC(=N)N)NC(=O)[C@H](CC(C)C)NC(=O)[C@H](Cc1ccccc1)NC(=O)[C@H](CCC(=O)O)NC(=O)[C@H](C)NC(=O)[C@H](CC(C)C)NC(=O)[C@H](CCCNC(=N)N)NC(=O)[C@H](CCC(N)=O)NC(=O)[C@@H](NC(=O)[C@H](C)NC(=O)[C@@H]1CSSC[C@H](NC(=O)[C@H](Cc2c[nH]cn2)NC(=O)CC[C@H](NC(=O)CCCCCCCCCCCCCCCCCCC(=O)O)C(=O)O)C(=O)N[C@@H](CC(N)=O)C(=O)N[C@@H]([C@@H](C)O)C(=O)N[C@@H](C)C(=O)N[C@@H]([C@@H](C)O)C(=O)N1)[C@@H](C)O)C(=O)N[C@@H](CC(C)C)C(=O)N1CCC[C@H]1C(=O)N1CCC[C@H]1C(=O)N[C@H](C(=O)N[C@@H](CC(N)=O)C(=O)N[C@H](C(=O)NCC(=O)N[C@@H](CO)C(=O)N[C@@H](CC(N)=O)C(=O)N[C@H](C(=O)N1CCC[C@H]1C(N)=O)[C@@H](C)O)C(C)C)[C@@H](C)O [Example 90, N-alpha-[(S)-4-Carboxy-4-(19-carboxynonadecanoylamino)butyryl]-[His1,Glu14,Arg17,Pro37]-pramlintide] ({C20 diacid-γGlu}-HCNTATCATQRLAEFLRHSSNNFGPILPPTNVGSNTP-NH2; disulfide 2-7), the “ThT pH 4.0 lag time” value was over 45 h. With CC[C@H](C)[C@H](NC(=O)[C@@H]1CCCN1C(=O)CNC(=O)[C@H](Cc1ccccc1)NC(=O)[C@H](CC(N)=O)NC(=O)[C@H](CC(N)=O)NC(=O)[C@H](CO)NC(=O)[C@H](CO)NC(=O)[C@H](Cc1c[nH]cn1)NC(=O)[C@H](Cc1c[nH]cn1)NC(=O)[C@H](CC(C)C)NC(=O)[C@H](Cc1ccccc1)NC(=O)[C@H](CCC(=O)O)NC(=O)[C@H](C)NC(=O)[C@H](CC(C)C)NC(=O)[C@H](CCCNC(=N)N)NC(=O)[C@H](CCC(N)=O)NC(=O)[C@@H](NC(=O)[C@H](C)NC(=O)[C@@H]1CSSC[C@H](NC(=O)CNC(=O)CC[C@H](NC(=O)CCCCCCCCCCCCCCCCCCC(=O)O)C(=O)O)C(=O)N[C@@H](CC(N)=O)C(=O)N[C@@H]([C@@H](C)O)C(=O)N[C@@H](C)C(=O)N[C@@H]([C@@H](C)O)C(=O)N1)[C@@H](C)O)C(=O)N[C@@H](CC(C)C)C(=O)N1CCC[C@H]1C(=O)N1CCC[C@H]1C(=O)N[C@H](C(=O)N[C@@H](CC(N)=O)C(=O)N[C@H](C(=O)NCC(=O)N[C@@H](CO)C(=O)N[C@@H](Cc1c[nH]cn1)C(=O)N[C@H](C(=O)N[C@@H](Cc1ccc(O)cc1)C(N)=O)[C@@H](C)O)C(C)C)[C@@H](C)O [Example 105, N-alpha-[(S)-4-Carboxy-4-(19-carboxynonadecanoylamino)butyryl]-[Gly1,Glu14,His17,His35]-pramlintide] ({C20 diacid-γGlu}-GCNTATCATQRLAEFLHHSSNNFGPILPPTNVGSHTY-NH2; disulfide 2-7) the “ThT pH 4.0 lag time” value was 26 h.
